What was measured:
[1] = system: Sprague-Dawley rats; assay: Bleeding side effect (tail bleeding time) after single oral administration; type: in vivo; conditions: rat, tail cut 1 hour after administration
Experimental: Male Sprague-Dawley rats (250 to 300 g) were fasted overnight and then were orally administered with the candidate substances at each concentration. After 1 hour, the rats were anesthetized by intraperitoneal injection of urethane (1.25 g/kg). The 3 mm portion of the tail tip of the rats was cut and carefully wiped every 30 seconds. Bleeding time was measured in […] until no more blood was drawn, and when the bleeding lasted longer than 30 minutes, the bleeding time was recorded as 30 minutes.

[2] = system: human platelets; assay: Cytotoxicity in human platelets (LDH leakage); type: cell-based; conditions: 3 min
Experimental: 5-2. Evaluation of Cytotoxicity of Candidate Substances Using Human Platelets
Leakage of lactate dehydrogenase (LDH) from the platelets was measured by a spectro-photometry method. 1.2 μl of the test substance was added to 598.8 μl of PRP, and the mixture was reacted at 37° C. for 3 minutes using a thermomixer. After the reaction, 100 μl of the sample was centrifuged at 12,000 g for 2 minutes, and 80 μl of the supernatant was taken and refrigerated until evaluation. The evaluation was performed within 24 hours. […] 25 μl of the sample was added to 1 ml of a pre-warmed Tris-EDTA NADH solution (56 mM Tris(hydroxymethyl) aminomethane, 5.6 mM EDTA, 0.17 mM β-NADH pH 7.4) and reacted for 5 minutes at 37° C. Then, 100 μl of a 14 mM pyruvate solution previously heated at 37° C. was added to the reaction mixture, and absorbance was immediately measured at a wavelength of 339 nm for 1 minute using a spectrophotometer (UV-Vis spectrophotometer, UV-2201, Shidamadzu, Japan). The rate of decrease in absorbance means the rate of oxidation of NADH, indicating the activity of LDH liberated from platelets. Total activity of LDH was measured by inducing lysis of platelets with 0.3% Triton X-100. The basal level of LDH (Control) was measured in plasma. The activity of each sample was measured as a percentage of the total activity of LDH.

[3] = system: ICR mouse; assay: Bleeding side effect by repeated administration (tail bleeding time); conditions: 50 mg/kg oral once daily for 7 days
Experimental: One hour after the last administration, the mice were anesthetized by breathing, and the 4 mm portion from the tail tip of the mice was cut. Then, the tail tip of the mice was immersed in a transparent 15-ml tube containing the pre-prepared 37° C. saline. The time when blood was not spread any more and the bleeding stopped was measured.

[4] = 2-week repeat-dose toxicity study; type: in vivo; conditions: both sexes, mouse, in vivo; ICR mice, oral 100, 300, 1000 mg/kg once a day for 2 weeks; read-out: NOAEL (No observed adverse effect level)
Experimental: (§1) After oral administration of vehicle (0.5% methylcellulose) or the candidate substances at low dose, medium dose, and high dose (100, 300, 1000 mg/kg) to ICR mice (female, male, 18 to 26 g) once a day for 2 weeks, the NOAEL values of the candidate substances were calculated by observing and recording mortality, body weight change, clinical observations, food and drinking water consumption, gross necropsy findings, histopathological evaluation of abnormal organ, and organ weights.

[5] = system: ICR mice; assay: 2-week repeat-dose toxicity study; type: in vivo; conditions: oral 100, 300 and 1000 mg/kg once a day for 2 weeks
Experimental: as §1

Structure (SMILES) | Bleeding time ([1]; 25 μM (so in the source)) [min] | Bleeding time ([1]; 100 μM (so in the source)) [min] | LDH leakage (%, Mean ± SEM) ([2]; 25 μM) [%] | LDH leakage (%, Mean ± SEM) ([2]; 100 μM) [%] | LDH leakage (%, Mean ± SEM) ([2]; 250 μM) [%] | Bleeding time [3] [min] | NOAEL at 2 weeks [4] [mg/kg] | findings in body weight change, clinical observations, food and drinking water consumption, gross necropsy findings, and organ weights [5] | mortality [5]
O=C(c1ccc(O)c(O)c1)N1CCc2sccc2C1 [Example 1, (6,7-Dihydrothieno[3,2-c]pyridin-5(4H)-yl)(3,4-dihydroxyphenyl)methanone] | 6.0 ± 0.9 | 6.5 ± 0.9 | 2.7 ± 0.5 | 2.4 ± 0.2 | 2.7 ± 0.5 | – | – | – | –
COc1cc(C(=O)N2CCc3sccc3C2)ccc1O [Example 12, (6,7-Dihydrothieno[3,2-c]pyridin-5(4H)-yl)(4-hydroxy-3-methoxyphenyl)methanone] | 6.3 ± 0.6 | 6.5 ± 0.3 | 2.3 ± 0.5 | 3.6 ± 0.1 | 3.6 ± 0.8 | – | – | – | –
CCc1occc(=O)c1OC(=O)c1ccc(O)c(OC)c1 [Example 13, 2-Ethyl-4-oxo-4H-pyran-3-yl 4-hydroxy-3-methoxybenzoate] | 6.5 ± 0.6 | 7.2 ± 0.3 | 2.2 ± 0.4 | 4.0 ± 1.2 | 4.0 ± 0.3 | 1.6 ± 0.4 | > 1000 | no abnormal findings were observed | no dead animals were observed
COc1cc(C(=O)Oc2c(C)occc2=O)ccc1O [Example 14, 2-Methyl-4-oxo-4H-pyran-3-yl 4-hydroxy-3-methoxybenzoate] | 6.7 ± 0.9 | 6.3 ± 0.6 | 4.8 ± 0.2 | 5.6 ± 0.9 | 4.2 ± 0.9 | 1.6 ± 0.3 | > 1000 | no abnormal findings were observed | no dead animals were observed
COc1ccc(NC(=O)c2ccc(O)c(OC)c2)c([N+](=O)[O-])c1 [Example 15, 4-Hydroxy-3-methoxy-N-(4-methoxy-2-nitrophenyl)benzamide] | 7.3 ± 0.7 | 6.2 ± 0.6 | 2.7 ± 0.1 | 3.2 ± 0.4 | 3.1 ± 1.3 | – | – | – | –
O=C(c1cc(O)ccc1O)N1CCc2sccc2C1 [Example 20, (6,7-Dihydrothieno[3,2-c]pyridin-5(4H)-yl)(2,5-dihydroxyphenyl)methanone] | 6.7 ± 0.6 | 7.7 ± 0.4 | 4.1 ± 0.7 | 5.2 ± 0.4 | 3.5 ± 1.2 | – | – | – | –
O=C(c1cc(O)ccc1O)N1CCC(c2noc3ccc(F)cc23)CC1 [Example 23, (2,5-Dihydroxyphenyl)(4-(5-fluorobenzo[d]isoxazol-3-yl)piperidin-1-yl)methanone] | – | – | 1.8 ± 0.1 | 2.2 ± 1.3 | 3.2 ± 0.5 | – | – | – | –
